Laboratory results: patent publication US10287279B2, “Inhibitors of human 12/15-lipoxygenase” (THE GENERAL HOSPITAL CORPORATION, priority 2013, dated 2019)
“Also recorded” adds a separate entry of the source. Like-named read-outs stand apart in the source and are kept apart here. Values belong to the compound of their own block, whether it stands above or below them.

Columns and labels:
Caco-2 permeability = details: human
[1] = test system: mouse hippocampal HT22 cells; experiment: HT22 cell culture assay, glutamate-induced cell death (LDH release); assay type: cell-based; details: for protection against oxidative glutamate toxicity in HT22 cells: 5 mM glutamate, increasing amounts or concentration not stated
Source text: Glutamate-induced oxidative stress^67-69 leads to time-dependent cell death mediated by 12/15-LOX in both immature primary neurons and mouse hippocampal HT22 cells.^38,46,70 Primary neurons require a lengthy isolation procedure and also show relatively modest increases in cell death in this assay, indicating they are not suited for a high-throughput testing approach. In contrast, HT22 cells grow quickly and consistently feature low cell death under control conditions, but a majority of cells die after glutamate treatment (50-100%). This assay can be adapted to 96-well plates, allowing for moderate to high throughput against the screened compounds. The characteristic Z′ score used to evaluate the technical quality and suitability as screening tool averaged 0.77 over ten experiments (SD=0.13; range, 0.49-0.94), where values above 0.5 indicate an excellent assay.^71
Treatment consisted of exchanging the medium to 100 μl fresh culturing medium and adding 5 mM glutamate (stock solution 0.5 M in PBS) in the presence or absence of DMSO (maximum 0.1% final concentration) as control or the indicated concentrations of 1. […] Three independent experiments were evaluated. […] The eicosanoids containing fractions were transferred to scintillation vials followed by addition of perdeuterated 13-HODE (13-d31-HODE), as an internal control for extraction and 1.5% glacial acetic acid for protein precipitation. […] The dry samples were then re-constituted in methanol and an internal control 12-deuterated (d8)-HETE (12-d8-HETE), was added to each sample for detector response variation and it was assumed that the change in detector response for 12-HETE and 12-d8-HETE would be similar. […] The Collision Induced Dissociation (CID) was used for MS-MS with collision energy of 35 eV.

[2] = Stability in aqueous solutions; details: pH 2, pH 7.4, pH 9
[3] = test system: mouse distal MCAO model of permanent focal ischemia; set-up: species or system C57B16J mice; details: in vivo
[4] = Microsomal stability, rat liver microsomes; details: absence of NADPH; 1 hr period; species not distinguished
[5] = test system: warfarin-pretreated mice subjected to transient focal ischemia; experiment: Warfarin-associated hemorrhage following experimental stroke (transient focal ischemia); assay type: in vivo, mouse
Protocol: A) In warfarin-pretreated mice subjected to transient focal ischemia with 3 h occlusion, 50 mg/kg ML351 was administered by i.p. injection 3 h after onset of ischemia (FIG. 9A). This mimics the situation of a patient on warfarin who experiences a severe stroke with hemorrhagic transformation.
B) To investigate if administering tPA to patients with an ischemic stroke who are on warfarin can be made safe, warfarin-pretreated mice were subjected to 2 h of transient focal ischemia, then treated with tPA 4 h after onset of ischemia, and administered 50 mg/kg ML351 by i.p. injection concurrently with tPA.

[6] = Aqueous kinetic solubility; details: PBS buffer (pH 7.4)
[7] = target: human platelet 12-lipoxygenase (12-LOX) (Homo sapiens (Human), UniProt P18054); experiment: Lipoxygenase UV-Vis assay, 12-LOX; assay type: biochemical; details: selectivity profiling
Sequence of human platelet 12-lipoxygenase (12-LOX) (P18054 whole entry): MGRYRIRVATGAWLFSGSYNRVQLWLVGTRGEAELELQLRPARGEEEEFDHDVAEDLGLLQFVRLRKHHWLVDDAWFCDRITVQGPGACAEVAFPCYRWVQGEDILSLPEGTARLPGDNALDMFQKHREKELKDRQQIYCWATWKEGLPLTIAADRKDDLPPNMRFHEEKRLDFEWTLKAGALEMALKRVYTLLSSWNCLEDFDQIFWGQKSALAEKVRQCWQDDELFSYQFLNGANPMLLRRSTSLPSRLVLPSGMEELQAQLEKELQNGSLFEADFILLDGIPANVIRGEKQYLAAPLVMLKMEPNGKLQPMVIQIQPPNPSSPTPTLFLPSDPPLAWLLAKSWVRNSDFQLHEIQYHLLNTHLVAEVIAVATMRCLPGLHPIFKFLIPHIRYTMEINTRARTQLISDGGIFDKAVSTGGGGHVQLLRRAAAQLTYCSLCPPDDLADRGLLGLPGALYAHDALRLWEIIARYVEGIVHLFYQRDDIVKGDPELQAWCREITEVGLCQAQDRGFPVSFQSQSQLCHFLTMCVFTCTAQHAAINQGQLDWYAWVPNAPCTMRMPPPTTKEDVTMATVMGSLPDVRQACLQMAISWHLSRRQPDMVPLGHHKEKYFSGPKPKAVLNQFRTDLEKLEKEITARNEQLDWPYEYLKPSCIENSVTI
Protocol: (§1) Human 5-lipoxygenase (5-LOX) was expressed as a non-tagged protein and used as a crude ammonium sulfate protein fraction, as published previously.^77
(§2) The inhibitor compounds were screened initially using one concentration point on a Perkin-Elmer Lambda 40 UV-Vis spectrometer. […] The reactions were initiated by adding either of ˜40 nM 12-LOX, 40 nM 12/15-LOX, 0.5 μM 15-LOX-2 or ˜200 nM 5-LOX (ammonium sulfate suspension) to a cuvette with a 2 mL reaction buffer constantly stirred using a magnetic stir bar at room temperature (22° C.). […] Inhibitors were stored at −20° C. in DMSO.

[8] = test system: filament model of transient focal ischemia; experiment: Filament model of transient focal ischemia; assay type: in vivo, mouse; details: 90 minutes ischemia, sacrifice at 24 hours
[9] = In vivo PK (mouse) at 30 mpk IP
[10] = target: human reticulocyte 15-lipoxygenase-1 (12/15-LOX) (Homo sapiens (Human), UniProt P16050); experiment: Lipoxygenase UV-Vis cuvette-based assay, 12/15-LOX; assay type: biochemical; details: for 12/15-LOX inhibition in words: SAR discussion, human 12/15-LOX
Sequence of human reticulocyte 15-lipoxygenase-1 (12/15-LOX) (P16050 whole entry): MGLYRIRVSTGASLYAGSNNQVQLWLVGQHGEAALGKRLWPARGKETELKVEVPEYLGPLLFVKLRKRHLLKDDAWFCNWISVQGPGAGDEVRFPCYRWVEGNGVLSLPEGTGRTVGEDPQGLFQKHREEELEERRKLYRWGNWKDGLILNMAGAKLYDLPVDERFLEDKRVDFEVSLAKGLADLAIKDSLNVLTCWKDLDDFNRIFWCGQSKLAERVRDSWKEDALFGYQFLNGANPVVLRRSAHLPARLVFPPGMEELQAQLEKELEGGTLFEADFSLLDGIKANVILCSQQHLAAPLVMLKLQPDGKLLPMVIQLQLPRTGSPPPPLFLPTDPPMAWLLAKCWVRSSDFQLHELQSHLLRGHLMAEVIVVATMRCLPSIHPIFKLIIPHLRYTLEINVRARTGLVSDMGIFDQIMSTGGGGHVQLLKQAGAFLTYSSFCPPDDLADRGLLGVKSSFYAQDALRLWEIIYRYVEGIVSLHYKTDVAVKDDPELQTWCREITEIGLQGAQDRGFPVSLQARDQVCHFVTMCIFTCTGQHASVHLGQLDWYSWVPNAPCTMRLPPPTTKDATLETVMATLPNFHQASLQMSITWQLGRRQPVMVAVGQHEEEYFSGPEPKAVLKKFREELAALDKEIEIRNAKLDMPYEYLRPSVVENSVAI
Protocol: as §1, §2

[11] = target: Human 5-lipoxygenase (5-LOX) (Homo sapiens (Human), UniProt P09917); experiment: Lipoxygenase UV-Vis assay, 5-LOX; assay type: biochemical; details: selectivity profiling
Sequence of Human 5-lipoxygenase (5-LOX) (P09917 whole entry): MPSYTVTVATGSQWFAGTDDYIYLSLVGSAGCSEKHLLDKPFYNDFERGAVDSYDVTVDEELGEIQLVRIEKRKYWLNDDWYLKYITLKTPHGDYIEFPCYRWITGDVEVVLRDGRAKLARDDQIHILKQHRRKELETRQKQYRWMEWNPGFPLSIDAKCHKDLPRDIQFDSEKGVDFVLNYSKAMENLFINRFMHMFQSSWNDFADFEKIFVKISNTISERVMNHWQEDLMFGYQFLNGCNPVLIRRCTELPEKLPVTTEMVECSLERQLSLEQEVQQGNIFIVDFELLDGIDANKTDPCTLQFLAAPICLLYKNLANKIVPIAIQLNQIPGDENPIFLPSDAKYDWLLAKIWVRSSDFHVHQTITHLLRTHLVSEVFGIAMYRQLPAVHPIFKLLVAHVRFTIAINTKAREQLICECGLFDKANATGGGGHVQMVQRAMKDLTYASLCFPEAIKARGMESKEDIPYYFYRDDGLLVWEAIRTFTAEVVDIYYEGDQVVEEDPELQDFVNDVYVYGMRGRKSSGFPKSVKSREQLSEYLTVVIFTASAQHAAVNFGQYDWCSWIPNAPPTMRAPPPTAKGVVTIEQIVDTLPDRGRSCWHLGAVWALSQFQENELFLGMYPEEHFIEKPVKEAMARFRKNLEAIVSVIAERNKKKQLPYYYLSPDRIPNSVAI
Protocol: as §1, §2

[12] = target: human epithelial 15-lipoxygenase-2 (15-LOX-2) (Homo sapiens (Human), UniProt O15296); experiment: Lipoxygenase UV-Vis assay, 15-LOX-2; assay type: biochemical; details: selectivity profiling
Sequence of human epithelial 15-lipoxygenase-2 (15-LOX-2) (O15296 whole entry): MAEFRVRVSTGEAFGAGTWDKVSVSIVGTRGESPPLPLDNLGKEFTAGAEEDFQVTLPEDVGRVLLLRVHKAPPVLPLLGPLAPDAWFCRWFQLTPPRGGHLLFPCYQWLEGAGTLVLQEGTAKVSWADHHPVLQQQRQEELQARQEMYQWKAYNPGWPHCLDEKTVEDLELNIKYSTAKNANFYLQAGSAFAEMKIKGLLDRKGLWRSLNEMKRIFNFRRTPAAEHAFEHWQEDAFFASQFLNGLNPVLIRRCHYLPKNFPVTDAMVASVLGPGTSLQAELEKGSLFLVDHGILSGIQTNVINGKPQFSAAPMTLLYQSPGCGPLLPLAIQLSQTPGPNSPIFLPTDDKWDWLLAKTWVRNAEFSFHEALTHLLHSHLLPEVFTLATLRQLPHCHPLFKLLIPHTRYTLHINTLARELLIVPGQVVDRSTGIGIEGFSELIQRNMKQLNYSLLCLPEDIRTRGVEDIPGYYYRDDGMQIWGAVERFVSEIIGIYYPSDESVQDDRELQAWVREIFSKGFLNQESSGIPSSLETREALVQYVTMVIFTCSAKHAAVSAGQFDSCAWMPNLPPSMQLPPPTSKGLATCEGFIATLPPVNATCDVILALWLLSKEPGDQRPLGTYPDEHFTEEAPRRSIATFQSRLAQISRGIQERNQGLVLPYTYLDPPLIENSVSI
Protocol: as §1, §2

[13] = male, CD1, mouse, brain, ip, 30 mg/kg
[14] = male, CD1, mouse, plasma, ip, 30 mg/kg
[15] = UV-Vis cuvette-based assay in triplicate, 10 μM AA, read-out: IC50 (μM) [±SD (μM)]

SMILES: CNc1oc(-c2cccc3ccccc23)nc1C#N [Compound 1, 5-(Methylamino)-2-(naphthalen-1-yl)oxazole-4-carbonitrile]
Mouse Plasma Stability remaining at 2 hours (Mouse plasma stability): 100% | Papp (Caco-2 permeability): 1.5 ×10⁻⁶ cm/s | cellular protection in HT22 cells ([1]; 5 μM concentration): cellular protection | protection against oxidative glutamate toxicity in HT22 cells [1]: protective against oxidative glutamate toxicity; also recorded: dose-dependent protection | stability in aqueous solutions [2]: stable | infarct size, permanent focal ischemia [3]: significantly reduced infarct size | microsomal stability without NADPH [4]: no degradation | Permeability (PAMPA) (PAMPA permeability): 723 10^−6 cm/s | hemorrhage in the ischemic hemisphere of warfarin-treated mice treated with tPA ([5]; 2 h ischemia, tPA 4 h after onset, 50 mg/kg i.p. concurrently with tPA): significantly reduced | hemorrhage in the ischemic hemisphere of warfarin-treated mice ([5]; 3 h occlusion, 50 mg/kg i.p. 3 h after onset of ischemia): significantly reduced | Kinetic Solubility [6]: 1.2 µM | IC50 [7]: > 100 µM | infarct size, transient focal ischemia ([8]; 10 mg/kg): did not change the infarct | infarct size, transient focal ischemia ([8]; 25 mg/kg): significantly protective | infarct size, transient focal ischemia ([8]; 50 mg/kg): significantly protective | AUC(0-inf) [9, 13]: 35.5 µM·h | Tmax [9, 13]: 30 min | half-life ([9]; male, CD1, mouse, brain, ip, 30 mg/kg, T1/2 (Brain), mouse, 30 mpk IP): ~60 min | AUC(0-inf) [9, 14]: 13 µM·h | Cmax [9, 14]: 13.8 µM | Tmax [9, 14]: 15 min | half-life ([9]; male, CD1, mouse, plasma, ip, 30 mg/kg, T1/2 (Plasma), mouse, 30 mpk IP): ~60 min | Cmax (Brain) ([9]; mouse, 30 mpk IP, brain): 28.8 µM

SMILES: CNc1oc(-c2ccc3ccccc3c2)nc1C#N [Compound 2, 5-(Methylamino)-2-(naphthalen-2-yl)oxazole-4-carbonitrile]
IC50 [10]: > 30 µM

SMILES: CNc1oc(-c2cccc3nccnc23)nc1C#N [Compound 6, 5-(Methylamino)-2-(quinoxalin-5-yl)oxazole-4-carbonitrile]
IC50 [10, 15]: > 40 µM

SMILES: CNc1oc(-c2cccc(Cl)c2Cl)nc1C#N [Compound 7, 2-(2,3-Dichlorophenyl)-5-(methylamino)oxazole-4-carbonitrile]
protection against glutamate-induced cell death in HT22 cells ([1]; concentration of 10 μM): some protection | IC50 [11]: > 100 µM

SMILES: CNc1oc(-c2ccc(Cl)c(Cl)c2)nc1C#N [Compound 8, 2-(3,4-Dichlorophenyl)-5-(methylamino)oxazole-4-carbonitrile]
protection against glutamate-induced cell death in HT22 cells ([1]; concentrations of 2 to 10): dose-dependent cell protective effect

SMILES: CNc1oc(-c2ccc3c(c2)OCCO3)nc1C#N [Compound 9, 2-(2,3-Dihydrobenzo[b][1,4]dioxin-6-yl)-5-(methylamino)oxazole-4-carbonitrile]
IC50 [10, 15]: > 40 µM

SMILES: CNc1oc(-c2ccc3cc[nH]c3c2)nc1C#N [Compound 13, 2-(1H-indol-6-yl)-5-(methylamino)oxazole-4-carbonitrile]
IC50 [10]: > 40 µM

SMILES: CC(C)Nc1oc(-c2cccc3ccccc23)nc1C#N [Compound 26, 5-(Isopropylamino)-2-(naphthalen-1-yl)oxazole-4-carbonitrile]
12/15-LOX inhibition in words [10]: significantly reduced the potency

Continued, in another order:

IC50 [10, 15]: > 30 µM
SMILES: CNc1oc(-c2cccc3cnccc23)nc1C#N [Compound 3, 2-(Isoquinolin-5-yl)-5-(methylamino)oxazole-4-carbonitrile]

12/15-LOX inhibition in words [10]: did not inhibit human 12/15-LOX
SMILES: CNc1oc(-c2ccc(-c3ccccc3)cc2)nc1C#N [Compound 11, 2-([1,1′-Biphenyl]-4-yl)-5-(methylamino)oxazole-4-carbonitrile]
protection against oxidative glutamate toxicity in HT22 cells [1]: protected HT22 cells against oxidative stress

12/15-LOX inhibition in words [10]: did not inhibit human 12/15-LOX
SMILES: N#Cc1nc(-c2cccc3ccccc23)oc1NC1CNC1 [Compound 31, 5-(Azetidin-3-ylamino)-2-(naphthalen-1-yl)oxazole-4-carbonitrile]
protection against oxidative glutamate toxicity in HT22 cells [1]: protected HT22 cells against oxidative stress

IC50 [12]: > 100 µM | IC50 [7]: > 40 µM
SMILES: CNc1sc(-c2cccc3ccccc23)nc1C#N [Compound 32, 5-(methylamino)-2-(naphthalen-1-yl)thiazole-4-carbonitrile]
